Results as given in patent US20090312377A1, “DERIVATIVES OF BENZO[D]ISOTHIAZOLES AS HISTONES DEACETYLASE INHIBITORS” (UNIVERSIDAD DE GRANADA, priority 2006, published 2009).

tested on: HDAC (HeLa nuclear extract, rich in HDAC activity); assay: HDAC AK-501 colorimetric (Color de Lys) inhibition assay with HeLa nuclear extract; assay type: biochemical, human; conditions: Color de Lys substrate 0.2 mM final, 20 minutes at 37° C., reading at 405 nm, from straight line of 5 concentrations
Description: The inhibitory activity of the compounds obtained in the previous Examples 1, 2, 3 and 5 was evaluated, for which the HDAC AK-501 colorimetric titration kit for inhibition, supplied by Biomol, was used, following the indicated protocol.
The process of the assay was carried out in two steps. In the first step, the Color de Lys® substrate, containing an acetylated lysine group, was incubated with a sample of HeLa (human cervical cancer cell line) nuclear extract, rich in HDAC activity. In the second step, the previous mixture was treated with the Color de Lys® developer, which caused an increase in the quantifiable color intensity at 405 nm. There is a linear correlation between the absorption and the deacetylation of lysine within instrumental limits. The addition of an HDAC inhibitor gives rise to a lower deacetylation of the Color de Lys® substrate and to a decrease in the intensity at 405 nm.
The operating procedure was the following: • 1. The buffer, diluted (250 nM) TSA (Trichostatin A) and the inhibitor to be assayed were added at the desired concentrations in the suitable wells of the plate (See Table below). • 2. The Hela extract was added, except to the enzyme-free control. • 3. The plate and the Color de Lys® substrate were thermostatted at 37° C. • 4. The reactions were started adding the 0.4 mM substrate (final concentration of the substrate 0.2 mM) in each well and it was stirred. • 5. A reaction time of 20 minutes at 37° C. was allowed. • 6. The Color de Lys® developer, prepared approximately 30 minutes before its use, was added (the developer was used diluted 20 times with an amount of TSA resulting in a final concentration of 1 μM in the assay). It was allowed to react for 15 minutes at 37° C. • 7. The reading was made at 405 nm.
(×5) and (×2) indicate the dilution factors.
The result of the reading using 5 different concentrations taken between 0.1-2.0 mM of each inhibitor allowed obtaining a straight line of concentrations versus enzymatic activity. The concentration necessary to deduce the 50% enzymatic activity (IC50) was calculated from the equation of said line.

IC50 [nM]	SMILES
1500	O=C(CCCCCN1C(=O)c2ccccc2S1(=O)=O)NO [Compound 1, 6-(1,1-dioxide-3-oxo-2H-benzo[d]isothiazol-2-yl)-N-hydroxyhexanamide]
250	O=C(CCCCCCN1C(=O)c2ccccc2S1(=O)=O)NO [Compound 2, 7-(1,1-dioxide-3-oxo-2H-benzo[d]isothiazol-2-yl)-N-hydroxyheptanamide]
1150	O=C(NO)c1ccc(CN2C(=O)c3ccccc3S2(=O)=O)cc1 [Compound 3, 4-[(1,1-dioxide-3-oxo-2H-benzo[d]isothiazol-2-yl)methyl]-N-hydroxybenzamide]
210	O=C(CCCCCOc1nsc2ccccc12)NO [Compound 5, 6-[(benzo[d]isothiazol-3-yl)oxa]-N-hydroxyhexanamide]
